In patent US8193167B2, “Pharmacologically active agents containing esterified phosphonates and methods for use thereof” (priority 2004, dated 2012):
Structures can show the parent of a compound that is named as a salt. Where two headings read alike, the source gives them in different places.

Experiments:
Vaccinia Copenhagen = assay: microbe, parasite or virus in culture; format: cell-based, vaccinia virus (VV); details: read-out: Vaccinia Copenhagen EC50
Cowpox Brighton = assay: microbe, parasite or virus in culture; format: cell-based, cowpox virus (CV); details: read-out: Cowpox Brighton EC50
HCMV strain AD-169 = assay: Plaque reduction assay for antiviral activity, HCMV in HFF cells; format: cell-based; details: read-out: HCMV EC50
MCMV strain Smith = assay: Plaque reduction assay for antiviral activity, MCMV in MEF cells; format: cell-based; details: read-out: MCMV EC50
in vitro = details: human
[1] = tested on: human foreskin fibroblast (HFF) cells
[2] = HFF cells, 8-day incubation, value without SD = single determination

Row | Structure (SMILES) | EC50 (HCMV strain AD-169; [2]) [nM] | EC50 (MCMV strain Smith; MEF cells, 7-day incubation) [nM] | CC50 [1] [nM] | EC50 (Vaccinia Copenhagen) [nM] | EC50 (Cowpox Brighton) [nM] | also measured
1 | Nc1ccn(C[C@@H](CO)OCP(=O)(O)O)c(=O)n1 [CDV, Cidofovir, reference compound] | – | – | – | – | – | EC50 (Vaccinia Copenhagen; Orthopoxvirus vaccinia, HFF): 31000 ± 5400 nM; EC50 (Cowpox Brighton; Cowpox virus, HFF): 42000 ± 5400 nM; EC50 (HCMV strain AD-169; Human betaherpesvirus 5, AD169, HFF, 192 h): 1200 ± 430 nM; EC50 (MCMV strain Smith; MEF, 168 h): 40 ± 30 nM; CC50 (in vitro): > 317000 nM
2 | CCCCCCCCCCCCCCCCCCCCCCOP(=O)(O)COC(CO)Cn1ccc(N)nc1=O (centres unmarked) [DC-CDV, Docosyl Cidofovir, Sodium Salt] | 4 | 850 ± 7 | 79600 | – | – | –
3 | CCCCCCCCCCCCOP(=O)(O)CO[C@H](CO)Cn1ccc(N)nc1=O [DD-CDV, Dodecyl Cidofovir, Sodium Salt] | 310 ± 190 | > 10000 | > 100000 | > 20000 | > 20000 | –
4 | CCCCCCCCCCCCCCCCCCCCCCOP1(=O)COC(Cn2ccc(N)nc2=O)CO1 (mixture of isomers) [DC-cCDV, Docosyl Cyclic Cidofovir] | 32 | 2800 ± 1700 | > 100000 | – | – | –
5 | CCCCCCCCCCCCCCCCOP(=O)(O)COC(CO)Cn1ccc(N)nc1=O (centres unmarked) [HD-CDV, Hexadecyl Cidofovir, Sodium Salt] | 5 | 20 | > 157000 | 3100 ± 100 | 6000 ± 2000 | –
6 | Nc1ccn(C[C@H]2COP(=O)(O)CO2)c(=O)n1 [cCDV, Cyclic Cidofovir, reference compound] | – | – | – | – | – | EC50 (HCMV strain AD-169; Human betaherpesvirus 5, AD169, 192 h, HFF cells, 8-day incubation, value without SD = single determination): 3100 ± 1800 nM; EC50 (MCMV strain Smith; 168 h, MEF cells, 7-day incubation): 230 ± 70 nM; CC50 (in vitro): > 331000 nM
7 | CCCCCCCCCCCCCCCCOP1(=O)COC(Cn2ccc(N)nc2=O)CO1 (mixture of isomers) [HD-cCDV, Hexadecyl Cyclic Cidofovir] | 3100 ± 2350 | 130 ± 10 | 83000 ± 20000 | – | – | –
8 | CCCCCCCCCCCCCCCCCCCCCCCCOP1(=O)CO[C@@H](Cn2ccc(N)nc2=O)CO1 (some centres unmarked) [TC-cCDV, Tetracosyl Cyclic Cidofovir] | 320 | 2300 ± 1300 | > 100000 | – | – | –
9 | CCCCCCCCCCCCCCCCCCCCOP(=O)(O)CO[C@H](CO)Cn1ccc(N)nc1=O [EC-CDV, Eicosyl Cidofovir, Sodium Salt] | 0.7 | 5 | – | 1600 ± 1300 | 1500 ± 900 | –
10 | CCCCCCCCCCCCCCCCCCCCCCCCOP(=O)(O)CO[C@H](CO)Cn1ccc(N)nc1=O [TC-CDV, Tetracosyl Cidofovir, Sodium Salt] | 6 | 7450 ± 640 | > 100000 | > 17000 | > 20000 | –
11 | CCCCCCCCCCCCCCCCCCCCOP1(=O)CO[C@@H](Cn2ccc(N)nc2=O)CO1 (some centres unmarked) [EC-cCDV, Eicosyl Cyclic Cidofovir] | 11 | 230 ± 10 | 86100 | – | – | –
12 | CCCCCCCCOP(=O)(O)CO[C@H](CO)Cn1ccc(N)nc1=O [O-CDV, Octyl Cidofovir, Sodium Salt] | 5250 ± 5700 | > 10000 | > 100000 | > 20000 | > 20000 | –
